# Results published in patent US10670616B2, “Microchip for assay of blood properties, and device for assay of blood properties” (FUJIMORI KOGYO CO., LTD., priority 2014, dated 2020).
# B1: abciximab (antibody, chains of the INN, looked up, V domains shown)
# VH: EVQLQQSGTVLARPGASVKMSCEASGYTFTNYWMHWVKQRPGQGLEWIGAIYPGNSDTSYIQKFKGKAKLTAVTSTTSVYMELSSLTNEDSAVYYCTLYDGYYVFAYWGQGTLVTVSA
# VL: EIVLTQSPVTLSVTPGDSVSLSCRASRDISNNLHWFQQTSHESPRLLIKYASQSMSGIPSRFSGSGSGTDFTLSINSVETEDFGMYFCQQTNSWPYTFGGGTKLEIK
# modifications: Fab
# Legend:
# [1] = test system: thrombus formation in blood; experiment: Microchip pressure analysis, first channel, collagen + tissue thromboplastin, 8 μl/min (Example 4); type: cell-based; conditions: for integrated values of the pressures measured for 10 minutes, first channel: 8 μL/min
# Procedure: (§1) A microchip having the same shape as in Examples 1 to 3 was prepared, and, in the second substrate 1b, a solution prepared by mixing 3 mg/ml collagen solution and 0.4 mg/ml tissue thromboplastin solution at a ratio of 1:1 was applied to the positions corresponding to the first reaction section 102 and the second reaction section 112 such that each applied area has a size of 6 mm×6 mm. The microchip prepared was used in the following experiment.
# (§2) Blood was collected using a blood collection tube containing 3.2% sodium citrate, manufactured by Terumo Corporation. To the collected blood, 50 μg/ml (final concentration) CTI and 12 mM (final concentration) calcium chloride were added, and the resulting blood was used for perfusion of the first channel at a flow rate of 8 μl/min. (initial wall shear rate, about 660 s^−1) and the second channel at a flow rate of 24 μl/min. (initial wall shear rate, about 2000 s^−1) for 10 minutes while pressure analysis was carried out.
# (§3) The same experiment as in Example 4-1 was carried out using (1) blood prepared by 2-fold dilution of the citrate blood with physiological saline; (2) blood prepared by adding a 0.5 U vWF (von Willebrand factor) formulation (CSL-Behring) to the 2-fold diluted blood of (1); (3) blood prepared by adding a 0.5 U PCC formulation (CSL-Behring) to the 2-fold diluted blood of (1); (4) blood prepared by adding 1 U heparin; or (5) blood prepared by adding 3 μg/ml Abciximab (Eli Lilly).
# (§4) The integrated values of the pressures measured for 10 minutes, and the ratios between the first channel and the second channel are shown in the following Table 1.
# blood coagulation [2] = experiment: ROTEM analysis of blood coagulation in the absence of blood flow (Comparative Example 1); type: cell-based; conditions: 12 mM calcium chloride, 50 μg/ml CTI and 1 μg/ml Arixtra
# Procedure: Blood was collected using a blood collection tube containing 3.2% sodium citrate, manufactured by Terumo Corporation. To the collected blood, 12 mM calcium chloride; 12 mM calcium chloride and 50 μg/ml CTI; or 12 mM calcium chloride, 50 μg/ml CTI, and 1 μg/ml Arixtra (synthetic pentasaccharide, GlaxoSmithKline K.K.); was/were added, and each resulting blood was analyzed by ROTEM (Tem International GmbH).
# [3] = test system: white thrombi in the presence of blood flow; experiment: Microchip pressure analysis with canine blood (Examples 5, 6); type: cell-based; conditions: 0.5 U danaparoid sodium, 24 and 8 μl/min, 10 minutes
# Procedure: Canine blood was anticoagulated with 3.2% sodium citrate. Subsequently, 50 μg/ml (final concentration) CTI and 12 mM (final concentration) calcium chloride were added to the blood, and the resulting blood was used for perfusion of the first channel at a flow rate of 24 μl/min. and the second channel at a flow rate of 8 μl/min. for 10 minutes while pressure analysis was carried out.
# An experiment was carried out in the same manner as in Example 5 except that 0.5 U danaparoid sodium was added to the dog sodium citrate blood.
# blood coagulation [4] = experiment: ROTEM analysis of canine blood coagulation in the absence of blood flow (Comparative Example 2); type: cell-based; conditions: 0.5 U/ml with 50 μg/ml CTI and 12 mM calcium chloride
# Procedure: Canine blood was anticoagulated with 3.2% sodium citrate. Subsequently, 12 mM calcium chloride; 50 μg/ml (final concentration) CTI and 12 mM (final concentration) calcium chloride; or 0.5 U/ml (final concentration) danaparoid sodium, 50 μg/ml CTI, and 12 mM (final concentration) calcium chloride; was/were added to the blood, and blood coagulation in the absence of blood flow was analyzed by ROTEM (Tem International GmbH).
# [5] = test system: thrombus formation in blood; experiment: Microchip pressure analysis, second channel, collagen + 0.2 mg/ml tissue thromboplastin, 24 μl/min (Examples 9, 10); type: cell-based; conditions: for areas under pressure, second channel: 24 μL/min
# Procedure: (§5) The same microchip as in Examples 1 to 3 was used, except that, in the second substrate 1b, a solution prepared by mixing 3 mg/ml collagen and 0.4 mg/ml tissue thromboplastin solution at a ratio of 1:1 and a solution prepared by mixing 3 mg/ml collagen and 0.2 mg/ml tissue thromboplastin solution at a ratio of 1:1 were applied to the positions corresponding to the first reaction section 102 and the second reaction section 112, respectively, such that each applied area has a size of 6 mm×6 mm. The microchip prepared was used in the following experiment.
# as §2, with “μl/min.” for “μl/min. (initial wall shear rate, about 660 s^−1)”, “μl/min.” for “μl/min. (initial wall shear rate, about 2000 s^−1)”
# (§6) The same experiment as in Example 9 was carried out except that blood prepared by 2-fold dilution with physiological saline (Otsuka Pharmaceutical Co., Ltd.), blood prepared by 2-fold dilution with physiological saline+addition of 0.5 U/ml vWF (CSL-Behring), blood prepared by 2-fold dilution+addition of 0.5 U/ml PCC (CSL-Behring), blood prepared by addition of 1 U/ml heparin, or blood prepared by addition of 2 μg/ml abciximab, was used.
# [6] = test system: thrombus formation in blood; experiment: Microchip pressure analysis, second channel, collagen + tissue thromboplastin, 24 μl/min (Example 4); type: cell-based; conditions: for integrated values of the pressures measured for 10 minutes, second channel: 24 μL/min
# Procedure: as §1, §2, §3, §4
# [7] = test system: thrombus formation in blood; experiment: Microchip pressure analysis, first channel, collagen + 0.4 mg/ml tissue thromboplastin, 8 μl/min (Examples 9, 10); type: cell-based; conditions: for areas under pressure, first channel: 8 μL/min
# Procedure: as §5
# as §2, with “μl/min.” for “μl/min. (initial wall shear rate, about 660 s^−1)”, “μl/min.” for “μl/min. (initial wall shear rate, about 2000 s^−1)”
# as §6
# [8] = test system: platelet-specific thrombus formation in blood; experiment: Microchip pressure analysis, second channel coated with only collagen, hirudin-treated blood (Examples 1, 2); type: cell-based, human
# Procedure: (§7) Two transparent substrates, that is, the first substrate 1a shown in FIG. 1(A) and the second substrate 1b shown in FIG. 1(B) (injection-molded products manufactured by Richell Corporation), were prepared. In the first substrate 1a, each of the channels 101 and 111 has a length of 20 mm, depth of 40 μm, and width of 2 mm, and each of the waste liquid storage sections has a length of 30 mm, depth of 1.3 mm, and width of 8.5 mm.
# (§8) In the substrate 1a, 25 dividing walls each having a height of 40 μm, width of 40 μm, and length of 1.5 mm were arranged at equal intervals at positions corresponding to the first reaction section and the second reaction section of the first channel and the second channel, to provide channel dividing walls 109 and 119, respectively.
# (§9) In the second substrate 1b, the holes corresponding to the inlets 104 and 114 were provided as penetrating holes each having an inner diameter of 2 mm and a circular cross-sectional shape. On the other hand, the holes corresponding to the air holes 105 and 115 were provided as penetrating holes each having an inner diameter of 1 mm and a circular cross-sectional shape. […]
# (§10) Pumps 107 and 117 were connected to the reservoirs 106 and 116 through tubes, and the pressures applied to the pumps were measured using pressure sensors 108 and 118.
# [9] = test system: thrombus formation (fibrin and platelets) in blood; experiment: Microchip pressure analysis, first channel coated with collagen and tissue thromboplastin, recalcified citrate blood + CTI (Examples 1, 2); type: cell-based, human
# Procedure: as §7, §8, §9, §10
# [10] = undiluted blood, 1 U/ml heparin or 2 μg/ml abciximab, cont 438.2
# [11] = undiluted blood, heparin 1 U/ml or abciximab 3 μg/ml, control 409.3
# [12] = undiluted blood, heparin 1 U/ml or abciximab 3 μg/ml, control 482
# [13] = undiluted blood, 1 U/ml heparin or 2 μg/ml abciximab, cont 393.8
molecule,measurement,setting,value
CO[C@H]1O[C@H](COS(=O)(=O)O)[C@@H](O[C@@H]2O[C@@H](C(=O)O)[C@@H](O[C@H]3O[C@H](COS(=O)(=O)O)[C@@H](O[C@@H]4O[C@H](C(=O)O)[C@@H](O[C@H]5O[C@H](COS(=O)(=O)O)[C@@H](O)[C@H](O)[C@H]5NS(=O)(=O)O)[C@H](O)[C@H]4O)[C@H](OS(=O)(=O)O)[C@H]3NS(=O)(=O)O)[C@H](O)[C@H]2OS(=O)(=O)O)[C@H](O)[C@H]1NS(=O)(=O)O [Arixtra],change in the pressure waveform,"[1]; Example 4-1 conditions, further addition of 0.5 μg/ml to the blood",no remarkable change in the pressure waveform
same,blood coagulation in the absence of blood flow,blood coagulation [2],strongly suppresses blood coagulation
danaparoid sodium,white thrombi in the presence of blood flow,[3],hardly suppresses white thrombi
same,blood coagulation in the absence of blood flow,blood coagulation [4],remarkable delay of blood coagulation
heparin [reference compound],"areas under pressure, second channel",[5]; [10],198
same,"integrated values of the pressures measured for 10 minutes, first channel",[1]; [11],127.3
same,"integrated values of the pressures measured for 10 minutes, second channel",[6]; [12],328.4
same,"areas under pressure, first channel",[7]; [13],12
same,thrombus formation in the first channel,[7]; Examples 9 and 10,more strongly suppressed thrombus formation in the first channel
vWF: vWF (von Willebrand factor) formulation (CSL-Behring),"areas under pressure, second channel","[5]; 50% dilution with physiological saline + 0.5 U/ml factor, 50% dil alone 110.2",282.8
same,"integrated values of the pressures measured for 10 minutes, first channel","[1]; 50% dilution of citrate blood with physiological saline + 0.5 U/ml factor, 50% dilution alone 203.9",171.2
same,"integrated values of the pressures measured for 10 minutes, second channel","[6]; 50% dilution of citrate blood with physiological saline + 0.5 U/ml factor, 50% dilution alone 248.2",381.1
same,thrombi in the second channel,"[6]; Example 4-2, 24 μl/min",remarkable recovery of thrombi in the second channel
same,"areas under pressure, first channel","[7]; 50% dilution with physiological saline + 0.5 U/ml factor, 50% dil alone 195.8",297.9
B1,"areas under pressure, second channel",[5]; [10],6
same,thrombus formation in the second channel,[5]; Examples 9 and 10,more strongly suppressed thrombus formation in the second channel
same,thrombus formation in the second channel,[8]; Examples 1 and 2,suppressed
same,"integrated values of the areas below 60 kPa, second channel","[8]; hirudin blood, 18 μl/min, 10 minutes, 10 mM aspirin + 100 μM AR-C66096, 3 μg/ml abciximab or 200 nM OS-1, control 372",5.4
same,thrombus formation in the first channel,[9]; Examples 1 and 2,suppressed
same,"integrated values of the areas below 60 kPa, first channel","[9]; citrate blood + 12 mM calcium chloride + 50 μg/ml CTI, 18 μl/min, 10 minutes, 10 mM aspirin + 100 μM AR-C66096, 3 μg/ml abciximab or 200 nM OS-1, control 457",27.0
same,"integrated values of the pressures measured for 10 minutes, first channel",[1]; [11],394.8
same,"integrated values of the pressures measured for 10 minutes, second channel",[6]; [12],20.5
same,"areas under pressure, first channel",[7]; [13],258
